Reference: US9493522B2, “Discovery of candidate biomarkers of in vivo apoptosis by global profiling of caspase cleavage sites” (THE REGENTS OF THE UNIVERSITY OF CALIFORNIA, priority 2008, dated 2016)
Residues, ends and D or L forms follow the SMILES beside them. *: point of attachment. Cbz = O=C(OCc1ccccc1)*; CH2F = FC*

What was measured:
[1] = system: Jurkat cells; experiment: Subtiligase N-terminal labeling and LC/MS/MS degradomic analysis of apoptotic Jurkat cells; format: cell-based, human; conditions: Jurkat cells treated with etoposide (50 μM, 12 hours)
Method: Normal cells were harvested for experiments at a density of 1×10^6 cells/ml. For apoptotic samples, cells at a density of 1×10^6 cells/ml were treated with etoposide (50 μM) for 12 hours prior to harvesting. Harvested cells (0.1 to 1 billion) were pelleted at 2,000×g and 25° C. for 5 minutes, washed twice with phosphate buffered saline, and lysed at a typical concentration of 2×10^8 cells/ml in 1.0% TRITON X-100 detergent, 100 mM BICINE pH 8.0, 100 μM Z-VAD-FMK, 100 μM E-64, 1 mM PMSF, 1 mM AEBSF, and 5 mM EDTA. […] Clarified supernatant was immediately used in ligation reactions at a protein concentration of approximately 20 mg/ml, as determined by Bradford assay (Bio-Rad).
Subtiligase (1 μM), biotinylated peptide ester (1 mM), and DTT (2 mM) were added to either control or apoptotic cell lysate. Ligation reactions were typically left to proceed at room temperature for 60 minutes. Samples were then denatured by direct addition of solid guanidine hydrochloride to a final concentration of 6 M, reduced by addition of neutralized TCEP (2 mM), heated at 95° C. for 15 minutes, cooled to room temperature, and alkylated by addition of iodoacetamide (6 mM) and incubation at room temperature in the dark for 1 hour. […]

[2] = system: Jurkat cells; experiment: Immunoblotting of caspase substrate proteolysis during apoptosis; format: cell-based, human
Method: Jurkat cells at a density of 1×10^6 cells/ml were treated with etoposide (50 μM) for 0, 2, 4, 8, 12, and 24 hours prior to harvesting. Harvested cells were pelleted at 2,000×g and 25° C. for 5 minutes, washed twice with phosphate buffered saline, and lysed at a concentration of 2×10^7 cells/ml in 1.0% SDS, phosphate buffered saline, 100 μM Z-VAD-FMK, 100 μM E-64, 1 mM PMSF, 1 mM AEBSF, 5 mM EDTA, and 10 mM sodium butyrate. Whole cell lysates were sonicated to shear genomic DNA, normalized to a protein concentration of approximately 2 mg/ml, as determined by BCA assay (Pierce). Cell lysates for each apoptotic timepoint were then analyzed by SDS-PAGE and Western blot. Mouse monoclonal anti-caspase-3 (#9668) and rabbit polyclonal anti-HDAC3 (#2632) antibodies were purchased from Cell Signaling Technology. Mouse monoclonal anti-DFF45 (#611036) antibody was purchased from BD Transduction Laboratories. Goat polyclonal anti-N-Cor (#sc-1611) and rabbit polyclonal anti-HDAC7 (#sc-11412) antibodies were purchased from Santa Cruz Biotechnology. Rabbit polyclonal anti-TBLR1 (#A300-408A), rabbit polyclonal anti-SHARP (#A301-119A), and rabbit polyclonal anti-RBBP7 (#A300-959A) antibodies were purchased from Bethyl Laboratories. Rabbit polyclonal anti-SMRTe (#06-891) antibody was purchased from Millipore. Western blots were imaged using SuperSignal West Femto Substrate (Pierce) with a Fluor Chem SP imager (Alpha Innotech). DNA fragmentation of whole cell DNA was analyzed by agarose gel with the Apoptotic DNA Ladder Kit (Roche).

[3] = Jurkat cells, 50 μM etoposide, FIG. 5A

Structure (SMILES) | N-termini identified in apoptotic cells derived from P1 aspartate cleavages ([1]; large-scale (2D LC/MS/MS) experiments) | N-termini identified in apoptotic cells derived from P1 aspartate cleavages ([1]; small-scale (1D LC/MS/MS) experiments) | Proteolysis of CCTδ, Ku80, LCOR, and RBBP7 (time course, immunoblot) [2, 3] | Proteolysis of HDAC6, HDAC7, N-CoR, RCOR2, SHARP, TBLR1, UBP5, and UBP36 (time course, immunoblot) [2, 3] | Cleavage of representative substrates HDAC7, Ku80, RCOR2, TBLR1, and UBP36 in presence of caspase inhibitor ([2]; etoposide-treated Jurkat cells, FIG. 5B)
COc1cc([C@@H]2c3cc4c(cc3[C@@H](O[C@@H]3O[C@@H]5CO[C@@H](C)O[C@H]5[C@H](O)[C@H]3O)[C@H]3COC(=O)[C@H]23)OCO4)cc(OC)c1O [etoposide] | 43% | 43% | partial cleavage | full cleavage | –
COC(=O)C[C@H](NC(=O)[C@H](C)NC(=O)[C@@H](NC(=O)OCc1ccccc1)C(C)C)C(=O)CF [Z-VAD(OMe)-fmk] (Cbz-Val-Ala-Asp(OMe)-CH2F) | – | – | – | – | blocked
